Measurements: patent US12338219B2, “Antimalarial agents” (Merck Sharp & Dohme LLC, priority 2019, dated 2025)

The compounds below were run on parasites (ring stage parasites, parasite growth) (assay: Parasite LDH growth assay (Parasite Assay), antiparasite potency). Details: 72 h, 72 hours growth, LDH readout; Table 3.
Format: cell-based
Description: Assessing Antiparasite Potency in a Parasite LDH Growth Assay (Parasite Assay) The parasite stock was maintained at […] in RPMI-Hepes media buffered with sodium bicarbonate and supplemented with […]. […] On the day of assay set up, a blood smear of the parasite culture was Giemsa stained and counted. The parasitemia was adjusted to 0.7% rings and the haematocrit was diluted to 2% in RPMI-Hepes media buffered with sodium bicarbonate and supplemented with 500 heat inactivated human serum and 0.5% albumax. 30 ul of diluted parasites are then added into 10 ul of media+compound in pre-prepared Greiner TC assay plates. Parasite assay plates were placed in gassed humidified boxes in single layer and allowed to incubate at 37° C. for 72 hours. After 72 hours growth, assay plates are sealed with parafilm and frozen flat, in single file at −80° C. overnight. On the following day, assay plates are allowed to thaw at room temperature for 4 hours to which an LDH assay is performed to measure parasite growth.

Row | SMILES | EC50 [nM]
1 | CCC1(CC)CC(=O)N([C@H](CCOC)[C@@H]2C[C@H]2C(=O)N[C@H]2c3ccccc3OCC2(C)C)C(=N)N1 [Example 19A] | 28
2 | CCC1(CC)CC(=O)N([C@H](CCOC)[C@@H]2C[C@H]2C(=O)N[C@@H]2c3ccccc3OCC2(C)C)C(=N)N1 [Example 19B] | 4.2
3 | COCC[C@H]([C@@H]1C[C@H]1C(=O)N[C@H]1CC(C)(C)Oc2ccccc21)N1C(=N)N[C@](C)(C(C)C)CC1=O [Example 20] | 5.3
4 | COCC[C@H]([C@@H]1C[C@H]1C(=O)N[C@H]1CCOc2ccccc21)N1C(=N)N[C@](C)(C(C)C)CC1=O [Example 22] | 44
5 | COCC[C@H]([C@@H]1C[C@H]1C(=O)NC1CC(C)(C)Oc2ccccc21)N1C(=N)NC(C)(C)CC1=O (stereo partly shown) [Example 23A] | 16
6 | COCC[C@H]([C@@H]1C[C@H]1C(=O)N[C@H]1C[C@H](C(F)(F)F)Oc2ccccc21)N1C(=N)NC(C)(C)CC1=O [Example 24B] | 2
7 | CC1(C)CC(=O)N([C@H](c2cccnc2)[C@@H]2C[C@H]2C(=O)N[C@H]2CC(C)(C)Oc3ccccc32)C(=N)N1 [Example 26] | 4.7
8 | CC1(C)CC(=O)N([C@H](c2cccnc2)[C@@H]2C[C@H]2C(=O)N[C@@H]2c3ccccc3OC(C)(C)[C@H]2O)C(=N)N1 [Example 27] | 78
9 | CCC1(CC)CC(=O)N(C[C@@H]2C(C)[C@H]2C(=O)N[C@H]2C[C@H](C(F)(F)F)Oc3ccccc32)C(=N)N1 (stereo partly shown) [Example 28A] | 12
10 | CCC1(CC)CC(=O)N(CC2C(C(=O)N[C@H]3C[C@H](C(F)(F)F)Oc4ccccc43)C2(C)C)C(=N)N1 (stereo partly shown) [Example 31A] | 215
11 | CC1(C)CC(=O)N([C@H](c2cccnc2)[C@@H]2C[C@H]2C(=O)N[C@H]2C[C@H](C(F)(F)F)Oc3ccccc32)C(=N)N1 [Example 32] | 1.8
12 | CCC1(CC)CC(=O)N(C[C@@H]2C(C)[C@H]2C(=O)N[C@@H]2c3ccccc3C[C@H]2O)C(=N)N1 (stereo partly shown) [Example 33] | 76
13 | CCC1(CC)CC(=O)N(C[C@H]2[C@H](C(=O)N[C@H]3CC(C)(C)Oc4ccccc43)C2(C)C)C(=N)N1 [Example 34] | 286
14 | CCC1(CC)CC(=O)N(C[C@@H]2C(C)[C@H]2C(=O)NC2c3ccccc3OC2(C)C)C(=N)N1 (stereo partly shown) [Example 36A] | 247
15 | COc1ccc([C@H]([C@@H]2C[C@H]2C(=O)N[C@H]2C[C@H](C(F)(F)F)Oc3ccccc32)N2C(=N)NC(C)(C)CC2=O)cn1 [Example 37] | 1.2
16 | COc1ccc([C@H]([C@@H]2C[C@H]2C(=O)N[C@H]2CC(C)(C)Oc3ccccc32)N2C(=N)NC(C)(C)CC2=O)cn1 [Example 38] | 6.5
17 | COc1ccc([C@H]([C@@H]2C[C@H]2C(=O)N[C@@H]2c3ccccc3OC(C)(C)[C@H]2O)N2C(=N)NC(C)(C)CC2=O)cn1 [Example 39] | 10.1
18 | COc1cncc([C@H]([C@@H]2C[C@H]2C(=O)N[C@H]2CC(C)(C)Oc3ccccc32)N2C(=N)NC(C)(C)CC2=O)c1 [Example 40] | 3.1
19 | COc1cncc([C@H]([C@@H]2C[C@H]2C(=O)N[C@H]2C[C@H](C(F)(F)F)Oc3ccccc32)N2C(=N)NC(C)(C)CC2=O)c1 [Example 41] | 1.1
20 | COc1cncc([C@H]([C@@H]2C[C@H]2C(=O)N[C@@H]2c3ccccc3OC(C)(C)[C@H]2O)N2C(=N)NC(C)(C)CC2=O)c1 [Example 42] | 18.4
21 | CC1(C)CC(=O)N([C@H](c2cccnc2)[C@H]2[C@H](C(=O)N[C@H]3C[C@H](C(F)(F)F)Oc4ccccc43)C2(C)C)C(=N)N1 [Example 43A] | 4
22 | CC1(C)CC(=O)N([C@@H](c2cccnc2)[C@H]2[C@H](C(=O)N[C@H]3C[C@H](C(F)(F)F)Oc4ccccc43)C2(C)C)C(=N)N1 [Example 43B] | 37
23 | CCC1(CC)CC(=O)N([C@@H](c2cccnc2)[C@H]2[C@H](C(=O)N[C@H]3C[C@H](C(F)(F)F)Oc4ccccc43)C2(C)C)C(=N)N1 [Example 44A] | 8.3

Row | SMILES | EC50 [nM]
24 | CCC1(CC)CC(=O)N([C@H](c2cccnc2)[C@H]2[C@H](C(=O)N[C@H]3C[C@H](C(F)(F)F)Oc4ccccc43)C2(C)C)C(=N)N1 [Example 44B] | 0.9
25 | CC1(C)CC(=O)N([C@H](c2ccc(C#N)cc2)[C@@H]2C[C@H]2C(=O)N[C@H]2CC(C)(C)Oc3ccccc32)C(=N)N1 [Example 45A] | 2.8
26 | CC1(C)CC(=O)N([C@@H](c2ccc(C#N)cc2)[C@@H]2C[C@H]2C(=O)N[C@H]2CC(C)(C)Oc3ccccc32)C(=N)N1 [Example 45B] | 220
27 | CC1(C)CC(=O)N([C@H](c2ccc(C#N)cc2)[C@@H]2C[C@H]2C(=O)N[C@@H]2c3ccccc3OC(C)(C)[C@H]2O)C(=N)N1 [Example 46] | 2.5
28 | CC1(C)CC(=O)N([C@@H](c2ccc(C#N)cc2)[C@@H]2C[C@H]2C(=O)N[C@H]2C[C@H](C(F)(F)F)Oc3ccccc32)C(=N)N1 [Example 47A] | 155
29 | CC1(C)CC(=O)N([C@H](c2ccc(C#N)cc2)[C@@H]2C[C@H]2C(=O)N[C@H]2C[C@H](C(F)(F)F)Oc3ccccc32)C(=N)N1 [Example 47B] | 0.9
30 | CCC1(CC)CC(=O)N([C@H](c2cccnc2)[C@H]2[C@H](C(=O)N[C@H]3CC(C)(C)Oc4ccccc43)C2(C)C)C(=N)N1 [Example 48A] | 2.7
31 | CCC1(CC)CC(=O)N([C@@H](c2cccnc2)[C@H]2[C@H](C(=O)N[C@H]3CC(C)(C)Oc4ccccc43)C2(C)C)C(=N)N1 [Example 48B] | 7.4
32 | CC1(C)CC(=O)N(C(c2cccnc2)[C@H]2[C@H](C(=O)N[C@H]3CC(C)(C)Oc4ccccc43)C2(C)C)C(=N)N1 (stereo partly shown) [Example 49A] | 20
33 | CC1(C)CC(=O)N([C@H](c2cccc(C#N)c2)[C@@H]2C[C@H]2C(=O)N[C@H]2CC(C)(C)Oc3ccccc32)C(=N)N1 [Example 50] | 3
34 | CC1(C)CC(=O)N([C@H](c2cccc(C#N)c2)[C@@H]2C[C@H]2C(=O)N[C@@H]2c3ccccc3OC(C)(C)[C@H]2O)C(=N)N1 [Example 51] | 5.3
35 | CC1(C)CC(=O)N([C@H](c2cccc(C#N)c2)[C@@H]2C[C@H]2C(=O)N[C@H]2C[C@H](C(F)(F)F)Oc3ccccc32)C(=N)N1 [Example 52] | 1
36 | CC1(C)CC(=O)N(C(c2cccc(C#N)c2)[C@@H]2C[C@H]2C(=O)NC2CC(C)(C)Oc3ccc(F)cc32)C(=N)N1 (stereo partly shown) [Example 53A] | 3.1
37 | CCC1(CC)CC(=O)N([C@H](c2cccnc2)[C@@H]2C(C)[C@H]2C(=O)N[C@H]2C[C@H](C(F)(F)F)Oc3ccccc32)C(=N)N1 (stereo partly shown) [Example 55A] | 0.8
38 | CCC1(CC)CC(=O)N([C@@H](c2cccnc2)[C@@H]2C(C)[C@H]2C(=O)N[C@H]2C[C@H](C(F)(F)F)Oc3ccccc32)C(=N)N1 (stereo partly shown) [Example 55B] | 180
39 | CCC1(CC)CC(=O)N([C@@H](c2cccnc2)[C@@H]2C(C)[C@H]2C(=O)N[C@H]2CC(C)(C)Oc3ccccc32)C(=N)N1 (stereo partly shown) [Example 56A] | 65
40 | CCC1(CC)CC(=O)N([C@H](c2cccnc2)[C@@H]2C(C)[C@H]2C(=O)N[C@H]2CC(C)(C)Oc3ccccc32)C(=N)N1 (stereo partly shown) [Example 56B] | 0.7
41 | CC1[C@@H]([C@@H](c2cccnc2)N2C(=N)NC(C)(C)CC2=O)[C@@H]1C(=O)N[C@H]1CC(C)(C)Oc2ccccc21 (stereo partly shown) [Example 57A] | 3.2
42 | CC1[C@@H]([C@H](c2cccnc2)N2C(=N)NC(C)(C)CC2=O)[C@@H]1C(=O)N[C@H]1CC(C)(C)Oc2ccccc21 (stereo partly shown) [Example 57B] | 100
43 | CC1(C)CC(=O)N([C@@H](c2cncc(Cl)c2)[C@@H]2C[C@H]2C(=O)N[C@H]2CC(C)(C)Oc3ccccc32)C(=N)N1 [Example 58A] | 210
44 | CC1(C)CC(=O)N([C@H](c2cncc(Cl)c2)[C@@H]2C[C@H]2C(=O)N[C@H]2CC(C)(C)Oc3ccccc32)C(=N)N1 [Example 58B] | 1
45 | CC1(C)CC(=O)N([C@H](c2cncc(Cl)c2)[C@@H]2C[C@H]2C(=O)N[C@@H]2c3ccccc3OC(C)(C)[C@H]2O)C(=N)N1 [Example 59] | 3.8
46 | CC1(C)CC(=O)N([C@H](c2cncc(Cl)c2)[C@@H]2C[C@H]2C(=O)N[C@H]2C[C@H](C(F)(F)F)Oc3ccccc32)C(=N)N1 [Example 60A] | 0.5

Same assay, conditions: 72 hours growth, LDH readout; Table 3

Row | SMILES | EC50 [nM]
47 | COCC[C@H]([C@@H]1C[C@H]1C(=O)N[C@H]1C[C@H](C(F)(F)F)Oc2ccccc21)N1C(=N)N[C@](C)(C(C)C)CC1=O [Example 21A] | 260
48 | COCC[C@H]([C@@H]1C[C@H]1C(=O)N[C@H]1C[C@H](C(F)(F)F)Oc2ccccc21)N1C(=N)N[C@](C)(C(C)C)CC1=O [Example 21B] | 1
49 | COCC[C@H]([C@@H]1C[C@H]1C(=O)NC1CC(C)(C)Oc2ccccc21)N1C(=N)NC(C)(C)CC1=O (stereo partly shown) [Example 23B] | 15
50 | COCC[C@H]([C@@H]1C[C@H]1C(=O)N[C@@H]1C[C@@H](C(F)(F)F)Oc2ccccc21)N1C(=N)NC(C)(C)CC1=O [Example 24A] | 3.4
51 | COCC[C@H]([C@@H]1C[C@H]1C(=O)N[C@@H]1C[C@@H](C(F)(F)F)Oc2ccccc21)N1C(=N)NC(C)(C)CC1=O [Example 24C] | 120
52 | CCC1(CC)CC(=O)N(C[C@@H]2C(C)[C@H]2C(=O)N[C@H]2C[C@H](C(F)(F)F)Oc3ccccc32)C(=N)N1 (stereo partly shown) [Example 28B] | 14
53 | CCC1(CC)CC(=O)N(C[C@@H]2C(C)[C@H]2C(=O)NC2c3ccccc3OC2(C)C)C(=N)N1 (stereo partly shown) [Example 36B] | 301
54 | CC1(C)CC(=O)N(C(c2cccnc2)[C@H]2[C@H](C(=O)N[C@H]3CC(C)(C)Oc4ccccc43)C2(C)C)C(=N)N1 (stereo partly shown) [Example 49B] | 14
55 | CC1(C)CC(=O)N(C(c2cccc(C#N)c2)[C@@H]2C[C@H]2C(=O)NC2CC(C)(C)Oc3ccc(F)cc32)C(=N)N1 (stereo partly shown) [Example 53B] | 2.1
